The text below walks through data of US9555039B2, “Piperidine derivatives and compositions for the inhibition of nicotinamide phosphoribosyltransferase (NAMPT)” (Forma TM, LLC., priority 2011, dated 2017).

Each structure is given as a SMILES string. Where two headings read alike, the source gives them in different places.

The target of experiment [1] is T1, Recombinant His-tagged NAMPT (Homo sapiens, UniProt P43490).
T1 construct: His; host or cells: E. coli
Nature of the experiment: Biochemical inhibition assay: NAMPT enzymatic reaction, NMN quantified by mass spectrometry. The following applies: 33 nM NAMPT, 1 μM NAM, 100 μM PRPP, 30 minutes at room temperature, read-out: Biochem IC50. The method, boiled down: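 Reaction 30 min at room temperature with 1 μM NAM, 100 μM PRPP, 2.5 mM ATP (final), quenched with formic acid. NMN quantified by RapidFire electrospray MS, normalized to L-cystathionine; IC50 from percent inhibition versus DMSO.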

Experiment [2] concerns A2780 cells. The experiment in a line: In-vitro cell proliferation assay (SRB, 72 hours). To be noted: Homo sapiens, sulforhodamine B (SRB) assay. Type of experiment: cell-based. The method, boiled down:
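Viable cells measured by TCA fixation and SRB staining, absorbance 570 nm; % inhibition vs DMSO control after media-only background subtraction, interpolated between two bracketing concentrations.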
For orientation: The SRB assay estimates cell density from bound dye.

T1 sequence (P43490 whole entry): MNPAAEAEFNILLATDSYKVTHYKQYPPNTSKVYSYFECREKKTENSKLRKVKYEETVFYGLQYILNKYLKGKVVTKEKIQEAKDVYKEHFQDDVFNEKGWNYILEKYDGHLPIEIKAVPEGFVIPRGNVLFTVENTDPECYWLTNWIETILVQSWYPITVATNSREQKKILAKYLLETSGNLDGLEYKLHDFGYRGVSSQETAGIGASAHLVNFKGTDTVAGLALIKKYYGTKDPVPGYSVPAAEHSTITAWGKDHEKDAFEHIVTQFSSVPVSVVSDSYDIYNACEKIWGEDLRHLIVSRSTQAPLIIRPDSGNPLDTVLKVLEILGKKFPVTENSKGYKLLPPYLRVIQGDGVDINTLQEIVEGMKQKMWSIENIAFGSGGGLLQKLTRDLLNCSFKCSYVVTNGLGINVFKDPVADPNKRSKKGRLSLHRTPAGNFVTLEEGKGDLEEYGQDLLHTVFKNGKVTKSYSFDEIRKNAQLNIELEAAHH

Take `O=C(NCCCCC1CCN(C(=O)c2cc3cnccc3[nH]2)CC1)c1ccc2nccn2c1` [N-{4-[1-({1H-pyrrolo[3,2-c]pyridin-2-yl}carbonyl)piperidin-4-yl]butyl}imidazo[1,2-a]pyridine-6-carboxamide]: the results for the IC50 in experiment [1] (2.5 mM ATP) and in experiment [2] were 8.6 nM and 13.1 nM, respectively.
As to `O=C(NCCCCC1CCN(C(=O)c2ccc3ncsc3c2)CC1)c1cc2cnccc2[nH]1` [N-(4-{1-[(1,3-benzothiazol-6-yl)carbonyl]piperidin-4-yl}butyl)-1H-pyrrolo[3,2-c]pyridine-2-carboxamide], the concentration for half-maximal inhibition (IC50) (usually the concentration that gives 50% inhibition) in experiment [1] (2.5 mM ATP) came out at 72.7 nM; in experiment [2] it was 12.6 nM.
Regarding `Cc1ncsc1C(=O)N1CCC(CCCCNC(=O)c2cc3cnccc3[nH]2)CC1` [N-(4-{1-[(4-methyl-1,3-thiazol-5-yl)carbonyl]piperidin-4-yl}butyl)-1H-pyrrolo[3,2-c]pyridine-2-carboxamide], the results for the half-maximal inhibitory concentration (IC50) in experiment [1] ([…] ATP) and in experiment [2] were 5.4 nM and 1 nM, respectively.
For the compound `Cc1ccc(C(=O)N2CCC(CCCCNC(=O)c3cc4ccncc4s3)CC2)cc1F` [N-(4-{1-[(3-fluoro-4-methylphenyl)carbonyl]piperidin-4-yl}butyl)thieno[2,3-c]pyridine-2-carboxamide], the 50% inhibitory concentration (IC50) in experiment [1] (2.5 mM ATP) was 41.7 nM; in experiment [2], 100 to 1000 nM.
For the compound `O=C(NCCCCC1CCN(C(=O)c2ccc(F)cn2)CC1)c1cc2cnccc2[nH]1` [N-(4-{1-[(5-fluoropyridin-2-yl)carbonyl]piperidin-4-yl}butyl)-1H-pyrrolo[3,2-c]pyridine-2-carboxamide], the results for the IC50 in experiment [1] (2.5 mM ATP) and in experiment [2] were 57.2 nM and 14 nM, respectively.
Take `Cc1nc(CC(=O)N2CCC(CCCCNC(=O)c3cc4cnccc4[nH]3)CC2)cs1` [N-(4-{1-[2-(2-methyl-1,3-thiazol-4-yl)acetyl]piperidin-4-yl}butyl)-1H-pyrrolo[3,2-c]pyridine-2-carboxamide]: the IC50 in experiment [1] (2.5 mM ATP) was found to be 49.4 nM; in experiment [2] it was 13.9 nM.
On to `O=C(NCCCCC1CCN(C(=O)c2ccoc2)CC1)c1ccc2nccn2c1` [N-(4-{1-[(furan-3-yl)carbonyl]piperidin-4-yl}butyl)imidazo[1,2-a]pyridine-6-carboxamide], for which the IC50 in experiment [1] (2.5 mM ATP) was 6.2 nM; in experiment [2], 25.6 nM.
`O=C(NCCCCC1CCN(C(=O)c2cccc(Cl)c2Cl)CC1)c1cc2cnccc2[nH]1` [N-(4-{1-[(2,3-dichlorophenyl)carbonyl]piperidin-4-yl}butyl)-1H-pyrrolo[3,2-c]pyridine-2-carboxamide]: the 50% inhibitory concentration (IC50) in experiment [1] (2.5 mM ATP) was determined as 31.2 nM; in experiment [2], 3.2 nM.
Consider `O=C(NCCCCC1CCN(C(=O)c2c(F)cccc2F)CC1)c1cc2ccncc2s1` [N-(4-{1-[(2,6-difluorophenyl)carbonyl]piperidin-4-yl}butyl)thieno[2,3-c]pyridine-2-carboxamide], for which the results for the IC50 in experiment [1] (2.5 mM ATP) and in experiment [2] were 4.3 nM and 0.8 nM, respectively.
Consider `Cc1nc(C(=O)N2CCC(CCCCNC(=O)c3ccc4nccn4c3)CC2)cs1` [N-(4-{1-[(2-methyl-1,3-thiazol-4-yl)carbonyl]piperidin-4-yl}butyl)imidazo[1,2-a]pyridine-6-carboxamide], for which the half-maximal inhibitory concentration (IC50) in experiment [1] (2.5 mM ATP) was determined as 31.4 nM; in experiment [2], 61.1 nM.
On to `O=C(NCCCCC1CCN(C(=O)c2ccc(F)c(F)c2)CC1)c1cc2cnccc2[nH]1` [N-(4-{1-[(3,4-difluorophenyl)carbonyl]piperidin-4-yl}butyl)-1H-pyrrolo[3,2-c]pyridine-2-carboxamide], for which the half-inhibitory concentration (IC50) in experiment [1] (2.5 mM ATP) was 56 nM; in experiment [2], 20.6 nM.
For `O=C(NCCCCC1CCN(C(=O)c2cc(F)ccc2F)CC1)c1ccc2nccn2c1` [N-(4-{1-[(2,5-difluorophenyl)carbonyl]piperidin-4-yl}butyl)imidazo[1,2-a]pyridine-6-carboxamide], in that order: 5 nM and 5 nM.
For the compound `O=C(NCCCCC1CCN(C(=O)c2ccc3cc[nH]c3c2)CC1)c1cc2cnccc2[nH]1` [N-(4-{1-[(1H-indol-6-yl)carbonyl]piperidin-4-yl}butyl)-1H-pyrrolo[3,2-c]pyridine-2-carboxamide], the IC50 in experiment [1] (2.5 mM ATP) was 52.9 nM; in experiment [2], 13.4 nM.
With `O=C(NCCCCC1CCN(C(=O)c2ccoc2)CC1)c1cc2ccncc2s1` [N-(4-{1-[(furan-3-yl)carbonyl]piperidin-4-yl}butyl)thieno[2,3-c]pyridine-2-carboxamide], the IC50 in experiment [1] (2.5 mM ATP) came out at 4 nM; in experiment [2], 6 nM.
In the case of `COc1ccc(C(=O)N2CCC(CCCCNC(=O)c3cc4ccncc4s3)CC2)cc1F` [N-(4-{1-[(3-fluoro-4-methoxyphenyl)carbonyl]piperidin-4-yl}butyl)thieno[2,3-c]pyridine-2-carboxamide], the IC50 in experiment [1] (2.5 mM ATP) was 71.4 nM; in experiment [2], 100 to 1000 nM.
`COc1cccc(C(=O)N2CCN(CCCCNC(=O)c3cc4cnccc4[nH]3)CC2)c1` [N-(4-{4-[(3-methoxyphenyl)carbonyl]piperazin-1-yl}butyl)-1H-pyrrolo[3,2-c]pyridine-2-carboxamide]: the 50% inhibitory concentration (IC50) in experiment [1] (2.5 mM ATP) turned out to be 436 nM; in experiment [2], 855 nM.
For `O=C(NCCCCC1CCN(C(=O)c2cc3ccccc3s2)CC1)c1ccc2nccn2c1` [N-(4-{1-[(1-benzothiophen-2-yl)carbonyl]piperidin-4-yl}butyl)imidazo[1,2-a]pyridine-6-carboxamide], in that order: 25.8 nM and 71.8 nM.
On to `O=C(NCCCCC1CCN(C(=O)c2ccc(Cl)cc2)CC1)c1cc2cnccc2[nH]1` [N-(4-{1-[(4-chlorophenyl)carbonyl]piperidin-4-yl}butyl)-1H-pyrrolo[3,2-c]pyridine-2-carboxamide], for which the values for the IC50 in experiment [1] (2.5 mM ATP) and in experiment [2] were 114 nM and 65.7 nM, respectively.
As to `CC(C)c1ccc(C(=O)N2CCC(CCCCNC(=O)c3cc4ccncc4s3)CC2)cn1` [N-[4-(1-{[6-(propan-2-yl)pyridin-3-yl]carbonyl}piperidin-4-yl)butyl]thieno[2,3-c]pyridine-2-carboxamide], the figures for the IC50 in experiment [1] (2.5 mM ATP) and in experiment [2] were 138 nM and 100 to 1000 nM, respectively.
Consider `COc1ccc(C(=O)N2CCC(CCCCNC(=O)c3ccc4nccn4c3)CC2)cc1OC` [N-(4-{1-[(3,4-dimethoxyphenyl)carbonyl]piperidin-4-yl}butyl)imidazo[1,2-a]pyridine-6-carboxamide], for which the 50% inhibitory concentration (IC50) in experiment [1] (2.5 mM ATP) turned out to be 38.5 nM; in experiment [2], 2.9 nM.
Take `O=C(NCCCCC1CCN(C(=O)c2c(F)cccc2F)CC1)c1cc2cnccc2[nH]1` [N-(4-{1-[(2,6-difluorophenyl)carbonyl]piperidin-4-yl}butyl)-1H-pyrrolo[3,2-c]pyridine-2-carboxamide]: the IC50 in experiment [1] (2.5 mM ATP) turned out to be 7.3 nM; in experiment [2] it was 1.4 nM.
Take `COc1ccc(OC)c(C(=O)N2CCC(CCCCNC(=O)c3ccc4nccn4c3)CC2)c1` [N-(4-{1-[(2,5-dimethoxyphenyl)carbonyl]piperidin-4-yl}butyl)imidazo[1,2-a]pyridine-6-carboxamide]: the IC50 was 42.9 nM in experiment [1] (2.5 mM ATP) and 1.9 nM in experiment [2].
As to `O=C(NCCCCC1CCN(C(=O)c2cccnc2)CC1)c1cc2cnccc2[nH]1` [N-(4-{1-[(pyridin-3-yl)carbonyl]piperidin-4-yl}butyl)-1H-pyrrolo[3,2-c]pyridine-2-carboxamide], the IC50 in experiment [1] (2.5 mM ATP) was determined as 98.6 nM; in experiment [2] it was 23.1 nM.
For `Cc1nc(C(=O)N2CCC(CCCCNC(=O)c3cc4cnccc4[nH]3)CC2)cs1` [N-(4-{1-[(2-methyl-1,3-thiazol-4-yl)carbonyl]piperidin-4-yl}butyl)-1H-pyrrolo[3,2-c]pyridine-2-carboxamide] the same measures were 69.5 nM and 25 nM.
Regarding `O=C(NCCCCC1CCN(C(=O)c2ccc3c(c2)OCO3)CC1)c1cc2ccncc2s1` [N-(4-{1-[(2H-1,3-benzodioxol-5-yl)carbonyl]piperidin-4-yl}butyl)thieno[2,3-c]pyridine-2-carboxamide], the IC50 in experiment [1] (2.5 mM ATP) was 21.1 nM; in experiment [2], 100 to 1000 nM.
As to `O=C(NCCCCC1CCN(C(=O)c2csc(-c3cccnc3)n2)CC1)c1ccc2nccn2c1` [N-[4-(1-{[2-(pyridin-3-yl)-1,3-thiazol-4-yl]carbonyl}piperidin-4-yl)butyl]imidazo[1,2-a]pyridine-6-carboxamide], the results for the half-inhibitory concentration (IC50) in experiment [1] (2.5 mM ATP) and in experiment [2] were 61.1 nM and 67 nM, respectively.
On to `O=C(NCCCCC1CCN(C(=O)c2csc(C(F)(F)F)n2)CC1)c1ccc2nccn2c1` [N-[4-(1-{[2-(trifluoromethyl)-1,3-thiazol-4-yl]carbonyl}piperidin-4-yl)butyl]imidazo[1,2-a]pyridine-6-carboxamide], for which the half-maximal inhibitory concentration (IC50) was 74.3 nM in experiment [1] (2.5 mM ATP) and 74 nM in experiment [2].
With `O=C(NCCCCC1CCN(C(=O)c2cccc(F)c2)CC1)c1cc2cnccc2[nH]1` [N-(4-{1-[(3-fluorophenyl)carbonyl]piperidin-4-yl}butyl)-1H-pyrrolo[3,2-c]pyridine-2-carboxamide], the 50% inhibitory concentration (IC50) worked out at 16.4 nM in experiment [1] (2.5 mM ATP) and 3.3 nM in experiment [2].
For `Cn1c(C(=O)N2CCC(CCCCNC(=O)c3ccc4nccn4c3)CC2)cc2ccccc21` [N-(4-{1-[(1-methyl-1H-indol-2-yl)carbonyl]piperidin-4-yl}butyl)imidazo[1,2-a]pyridine-6-carboxamide] the same measures were 124 nM and 55.1 nM.
Turning to `O=C(NCCCCC1CCN(C(=O)c2ccc(Cl)cc2)CC1)c1ccc2nccn2c1` [N-(4-{1-[(4-chlorophenyl)carbonyl]piperidin-4-yl}butyl)imidazo[1,2-a]pyridine-6-carboxamide], the IC50 in experiment [1] (2.5 mM ATP) is 84.6 nM; in experiment [2], 100 to 1000 nM.
For `COc1ccc(OC)c(C(=O)N2CCC(CCCCNC(=O)c3cc4ccncc4s3)CC2)c1` [N-(4-{1-[(2,5-dimethoxyphenyl)carbonyl]piperidin-4-yl}butyl)thieno[2,3-c]pyridine-2-carboxamide] the same measures were 5.5 nM and 2.9 nM.
